Assays:
AR [1] = target: AR (Homo sapiens, UniProt P15121); conditions: substrate of AR, in the presence of NADPH; cited from earlier work
IL-6, IL-8 and PGE2 [2] = test: RW-induced IL-6, IL-8 and PGE2 secretion by SAEC (ELISA); assay type: cell-based, human; conditions: siRNA 100 nM, 48 h, then RW 50 μg/ml 24 h
Description: The SAEC were plated in 6-well plates at a density of 2×10^5 cells/well in triplicate for each group. After 24 hours, the medium was replaced with serum-free SABM with or without zopolrestat (20 μM). The growth-arrested and AR ablated cells were stimulated with RW (50 μg/mL) for another 24 hours. The medium was collected from each well, centrifuged and supernatant was analyzed for PGE2 (Cayman Chemical Co., Ann Arbor, Mich.); IL-6 (Diaclone, Stamford, Conn.) and IL-8 (R&D systems Inc, Minneapolis, Minn.) by using an ELISA kits according to the manufacturer's instructions.

AR [3] = test: RNA interference ablation of AR in SAEC (AR protein by Western blot); assay type: cell-based, human; conditions: transient transfection of SAEC, 100 nM, 48 h
Description: The ablation of AR mRNA was essentially carried out as described in the art. Briefly, 2×10^5 SAECs were plated in a 6-well plate and grown until ˜80% confluency. The cells were incubated with serum-free medium containing the AR-siRNA ([…] (SEQ ID NO:1)) or scrambled siRNA (AAAATCTCCCTAAATCA TACA (SEQ ID NO:2); control) to a final concentration of 100 nM and the RNAiFect™ transfection reagent (Qiagen). The cells were cultured for 48 h at 37° C., and AR expression was determined by measuring AR protein by Western blot analysis using anti-AR antibodies.
The ablation of AR mRNA was essentially carried out as described in the art. Briefly, 2×10^5 SAECs were plated in a 6-well plate and grown till >80% confluency. The cells were incubated with serum-free medium containing the AR-siRNA ([…]) (SEQ ID NO:1) or scrambled siRNA (AAAATCTCCCTAAATCA TACA (SEQ ID NO:2); control) to a final concentration of 100 nM and the RNAiFect™ transfection reagent (Qiagen). The cells were cultured for 48 h at 37° C., and AR expression was determined by measuring AR protein by Western blot analysis using anti-AR antibodies.

IL-6, IL-8 and PGE2 [4] = test: TNF-α- and LPS-induced IL-6, IL-8 and PGE2 secretion by SAEC (ELISA); assay type: cell-based, human; conditions: siRNA 100 nM 48 h, then TNF-α or LPS 24 h

Molecule	Km (AR [1]) [µM]	RW-induced synthesis of IL-6, IL-8 and PGE2 after siRNA ablation of AR (IL-6, IL-8 and PGE2 [2])	AR protein abolished (AR [3]) [%]	TNF-α and LPS-induced IL-6, IL-8 and PGE2 production after ablation of AR (IL-6, IL-8 and PGE2 [4])
CCCCCC(O)/C=C/C=O (stereo not shown) [HNE, 4-hydroxynonenal]	10 to 30			
AATCGGTGTCTCCAACTTCAA (SEQ ID NO:1) (listed as DNA, chemistry not given here) [AR siRNA, siRNA used to ablate AR mRNA in SAEC, 100 nM]		significantly prevented	> 95	significantly prevented
